Assay results from ChEMBL document CHEMBL1201862, “PubChem BioAssay data set” (2004).
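Compound exposure: 48 hours, 5 concentrations, 96-well plates. Abbreviation: GI50, concentration required for 50% inhibition of growth.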 Activity calls are given as the source filed them. Rule as the data show it: active = GI50 up to about 1.1 µM and inactive = higher.

Columns and labels:
Assay in all cases: DTP human tumour cell line panel, 48 h
[1] = system: 786-0
[2] = system: ACHN
[3] = system: BT-549
[4] = system: COLO 205
[5] = system: EKVX
[6] = system: K562
[7] = system: MDA-N
[8] = system: MOLT-4
[9] = system: Malme-3M
[10] = system: NCI-H23
[11] = system: NCI/ADR-RES
[12] = system: OVCAR-4
[13] = system: SK-MEL-5
[14] = system: SK-OV-3
[15] = system: SNB-19
[16] = system: TK-10
[17] = system: UO-31
[18] = system: A498
[19] = system: DU-145
[20] = system: RXF 393

Compound | GI50 [1] | GI50 [2] | GI50 [3] | GI50 [4] | GI50 [5] | GI50 [6] | GI50 [7] | GI50 [8] | GI50 [9] | GI50 [10] | GI50 [11] | GI50 [12] | GI50 [13] | GI50 [14] | GI50 [15] | GI50 [16] | GI50 [17] | GI50 [18] | GI50 [19] | GI50 [20]
CN(C)C(=N)/N=C(\N)Nc1cccc(Cl)c1 | > 100 µM (inactive) | 55.5 µM (inactive) | 19.5 µM (inactive) | 20 µM (inactive) | > 100 µM (inactive) | > 100 µM (inactive) | 83.9 µM (inactive) | > 100 µM (inactive) | 45.3 µM (inactive) | > 100 µM (inactive) | > 100 µM (inactive) | > 100 µM (inactive) | 28.1 µM (inactive) | > 100 µM (inactive) | > 100 µM (inactive) | > 100 µM (inactive) | 78 µM (inactive) | – | – | –
O=C(Nc1cccc(C(F)(F)F)c1)C(=O)C(C(=O)c1ccc2ccccc2c1)C1OC(=O)c2ccccc21 (centres undefined) | 4.21 µM (inactive) | 12.6 µM (inactive) | 14.3 µM (inactive) | 10.9 µM (inactive) | 14.5 µM (inactive) | 5.38 µM (inactive) | – | 1.82 µM (inactive) | 6.81 µM (inactive) | 6.46 µM (inactive) | – | 9.12 µM (inactive) | 10.5 µM (inactive) | 21.6 µM (inactive) | 6.25 µM (inactive) | 22.6 µM (inactive) | 12.4 µM (inactive) | 9.93 µM (inactive) | 26.5 µM (inactive) | 4.16 µM (inactive)
CC(=O)OCC1OC(n2c(-c3cccs3)c3c(c(C#N)c2=S)-c2ccccc2CC3)C(OC(C)=O)C(OC(C)=O)C1OC(C)=O (centres undefined) | 9.27 µM (inactive) | 9.64 µM (inactive) | 11.7 µM (inactive) | 9.35 µM (inactive) | 5.53 µM (inactive) | 4.37 µM (inactive) | – | 4.48 µM (inactive) | 7.36 µM (inactive) | 19.5 µM (inactive) | 17.7 µM (inactive) | 5.32 µM (inactive) | 6.18 µM (inactive) | 20.2 µM (inactive) | 13 µM (inactive) | 6.19 µM (inactive) | 2.97 µM (inactive) | 7.66 µM (inactive) | 23.9 µM (inactive) | 8.28 µM (inactive)
CCN(CC)CCNc1ccc2ncn3c4cc(OC)c(OC)c(O)c4c(=O)c1c23 | 4.01 µM (inactive) | 3.76 µM (inactive) | 16.3 µM (inactive) | 1.33 µM (inactive) | 16 µM (inactive) | 5.89 µM (inactive) | – | 0.524 µM (active) | 18 µM (inactive) | 2.69 µM (inactive) | 3.94 µM (inactive) | 4.9 µM (inactive) | 15.5 µM (inactive) | 12.5 µM (inactive) | 7.59 µM (inactive) | 13.8 µM (inactive) | 12.3 µM (inactive) | 15.5 µM (inactive) | 10.2 µM (inactive) | 1.36 µM (inactive)
CCc1ccc2c(c1)CC1(C2)Cc2cc3c(cc2C1)C(=O)CC3 (centres undefined) | 25.6 µM (inactive) | 17.9 µM (inactive) | – | 4.93 µM (inactive) | > 100 µM (inactive) | 3.85 µM (inactive) | 2.25 µM (inactive) | – | 14.9 µM (inactive) | 22.9 µM (inactive) | 40.5 µM (inactive) | 15 µM (inactive) | 5.01 µM (inactive) | 25.1 µM (inactive) | – | 38.6 µM (inactive) | 43.9 µM (inactive) | 10.9 µM (inactive) | – | 36.9 µM (inactive)
CNc1ncnc2c1cnn2CCCCO | > 100 µM (inactive) | > 100 µM (inactive) | > 100 µM (inactive) | > 100 µM (inactive) | > 100 µM (inactive) | > 100 µM (inactive) | > 100 µM (inactive) | > 100 µM (inactive) | > 100 µM (inactive) | > 100 µM (inactive) | – | > 100 µM (inactive) | > 100 µM (inactive) | > 100 µM (inactive) | > 100 µM (inactive) | > 100 µM (inactive) | > 100 µM (inactive) | > 100 µM (inactive) | > 100 µM (inactive) | > 100 µM (inactive)
O=C1CC(c2cccc(Cl)c2)n2cccc21 (centres undefined) | > 100 µM (inactive) | > 100 µM (inactive) | – | > 100 µM (inactive) | – | 61.4 µM (inactive) | – | 70 µM (inactive) | – | > 100 µM (inactive) | > 100 µM (inactive) | > 100 µM (inactive) | – | > 100 µM (inactive) | > 100 µM (inactive) | > 100 µM (inactive) | 26.5 µM (inactive) | > 100 µM (inactive) | > 100 µM (inactive) | > 100 µM (inactive)
COc1cc(C2SCC(=O)N2c2ccc(-c3ccc(-n4c(-c5ccccc5)nc5ccccc5c4=O)cc3)cc2)cc(OC)c1OC (centres undefined) | 16.2 µM (inactive) | 16.6 µM (inactive) | 17.3 µM (inactive) | 54.1 µM (inactive) | 37.5 µM (inactive) | 13.6 µM (inactive) | – | 21.1 µM (inactive) | 31.7 µM (inactive) | 73.1 µM (inactive) | 29.2 µM (inactive) | 10.4 µM (inactive) | 22.4 µM (inactive) | 57.3 µM (inactive) | 26.5 µM (inactive) | 63.1 µM (inactive) | 25.2 µM (inactive) | 44.3 µM (inactive) | 78 µM (inactive) | –
CC(C)(C)OC(=O)N(CCCCN(CCCNC(=O)C(F)(F)F)C(=O)OC(C)(C)C)CCCNC(=O)C(F)(F)F | > 100 µM (inactive) | > 100 µM (inactive) | > 100 µM (inactive) | > 100 µM (inactive) | > 100 µM (inactive) | 98.9 µM (inactive) | – | 71.9 µM (inactive) | – | > 100 µM (inactive) | 91.2 µM (inactive) | > 100 µM (inactive) | 79.3 µM (inactive) | > 100 µM (inactive) | > 100 µM (inactive) | > 100 µM (inactive) | > 100 µM (inactive) | > 100 µM (inactive) | > 100 µM (inactive) | > 100 µM (inactive)
Cc1[nH]n(-c2ncc(C#N)c(=O)[nH]2)c(=O)c1CCO | > 100 µM (inactive) | > 100 µM (inactive) | – | > 100 µM (inactive) | > 100 µM (inactive) | > 100 µM (inactive) | > 100 µM (inactive) | 75.5 µM (inactive) | > 100 µM (inactive) | > 100 µM (inactive) | > 100 µM (inactive) | > 100 µM (inactive) | > 100 µM (inactive) | > 100 µM (inactive) | > 100 µM (inactive) | > 100 µM (inactive) | > 100 µM (inactive) | > 100 µM (inactive) | > 100 µM (inactive) | > 100 µM (inactive)
OC(c1ccccc1)(c1cccnc1)C(O)(c1ccccc1)c1cccnc1 (centres undefined) | > 100 µM (inactive) | > 100 µM (inactive) | > 100 µM (inactive) | > 100 µM (inactive) | > 100 µM (inactive) | > 10 µM (inactive) | > 100 µM (inactive) | – | > 100 µM (inactive) | > 100 µM (inactive) | > 100 µM (inactive) | – | > 100 µM (inactive) | > 100 µM (inactive) | > 100 µM (inactive) | > 100 µM (inactive) | > 100 µM (inactive) | – | > 100 µM (inactive) | > 100 µM (inactive)
Cc1cc2c(s1)C(=O)c1sccc1C2=O | 1.83 µM (inactive) | 1.05 µM (active) | – | 1.9 µM (inactive) | 1.84 µM (inactive) | 1.91 µM (inactive) | 0.171 µM (active) | 2.3 µM (inactive) | 0.168 µM (active) | 0.171 µM (active) | 0.459 µM (active) | 0.561 µM (active) | 0.162 µM (active) | 2.06 µM (inactive) | 1.66 µM (inactive) | 2.85 µM (inactive) | 0.805 µM (active) | 1.78 µM (inactive) | 1.83 µM (inactive) | 1.17 µM (inactive)
COC(=O)/C=C/c1cc(O)c2c(c1)[C@H](C(=O)OC)[C@@H](c1ccc(O)c(O)c1)O2 | 0.152 µM (active) | 0.08 µM (active) | – | 11.5 µM (inactive) | 8.67 µM (inactive) | 0.0306 µM (active) | 0.0122 µM (active) | 0.0753 µM (active) | – | 0.342 µM (active) | 0.158 µM (active) | 2.76 µM (inactive) | 0.0335 µM (active) | 0.319 µM (active) | 0.0386 µM (active) | 24.7 µM (inactive) | 0.189 µM (active) | 6.82 µM (inactive) | 0.273 µM (active) | –
C=C(C)[C@H]1[C@@H]2OC(=O)[C@H]1[C@]1(O)C[C@H]3OC34C(=O)O[C@H]2[C@@]41C.CC(C)(O)[C@H]1[C@@H]2OC(=O)[C@H]1[C@]1(O)C[C@H]3OC34C(=O)O[C@H]2[C@@]41C (some centres undefined) | > 100 µM (inactive) | > 100 µM (inactive) | > 100 µM (inactive) | > 100 µM (inactive) | > 100 µM (inactive) | > 100 µM (inactive) | > 100 µM (inactive) | > 100 µM (inactive) | > 100 µM (inactive) | > 100 µM (inactive) | – | > 100 µM (inactive) | > 100 µM (inactive) | > 100 µM (inactive) | > 100 µM (inactive) | > 100 µM (inactive) | > 100 µM (inactive) | > 100 µM (inactive) | > 100 µM (inactive) | > 100 µM (inactive)
N#Cc1nc(NC(=O)c2ccccc2)sc1N | > 10 µM (inactive) | > 10 µM (inactive) | – | > 10 µM (inactive) | > 10 µM (inactive) | > 10 µM (inactive) | > 10 µM (inactive) | 3.27 µM (inactive) | > 10 µM (inactive) | > 10 µM (inactive) | > 9.48 µM (inactive) | > 6.07 µM (inactive) | > 10 µM (inactive) | > 10 µM (inactive) | > 10 µM (inactive) | > 10 µM (inactive) | > 10 µM (inactive) | > 10 µM (inactive) | > 10 µM (inactive) | > 10 µM (inactive)
